# Laboratory results: PMC8942544, “Design and synthesis of benzodiazepines as brain penetrating PARP-1 inhibitors” (Journal of Enzyme Inhibition and Medicinal Chemistry, 2022)
# Entries after “also recorded” stand apart in the source; their conditions may differ. Like-named read-outs stand apart in the source and are kept apart here.
# Experiments:
# [1] = cited from earlier work
# [2] = test system: MX-1 (BRCA1 mutant tumour cells); experiment: MTT antiproliferation assay, MX-1 cells; assay type: cell-based; conditions: Homo sapiens, MX1, breast cancer cell line, 48 h
# Description: (§1) Due to their acceptable inhibition rates (more than 50%) at the concentration of 50 nM, compounds H34, H42, H48, H50, and H52 were selected to evaluate the proliferation inhibition activity on several cancer cells, including BRCA1 mutant tumour cells (MX-1) and BRCA1 wild type tumour cells (MCF7 and A549).
# (§2) The MTT assay was performed to detect the sensitivity of cells to anticancer drugs in vitro. The human A549, MCF7, and U87 tumour cells, as well as human BRCA mutant tumour cells (MX-1), were tested in this study. The cell culture was carried out in accordance with routine operations or instructions. Briefly, 5,000 cells were seeded in each well of a 96-well plate. After cell attachment to the bottom of the well, different concentrations of tested compounds were added into designated wells. After 48 h of incubation, 20 µL of MTT solution (5 mg/mL) were added to each well for cell staining. After 4 h, the media were removed and 150 µL of DMSO were added to each well. Finally, the absorbance was determined at 570 nm using a multifunctional microplate reader (TECAN).
# [3] = test system: MCF7 cells; experiment: MTT antiproliferation assay, MCF7 cells; assay type: cell-based; conditions: Homo sapiens, breast cancer cell line, 48 h
# Description: as §1, §2
# [4] = target: PARP-2 (Homo sapiens, UniProt Q9UGN5); experiment: PARP-2 enzyme inhibition (IC50); assay type: biochemical
# PARP-2, sequence (Q9UGN5 whole entry): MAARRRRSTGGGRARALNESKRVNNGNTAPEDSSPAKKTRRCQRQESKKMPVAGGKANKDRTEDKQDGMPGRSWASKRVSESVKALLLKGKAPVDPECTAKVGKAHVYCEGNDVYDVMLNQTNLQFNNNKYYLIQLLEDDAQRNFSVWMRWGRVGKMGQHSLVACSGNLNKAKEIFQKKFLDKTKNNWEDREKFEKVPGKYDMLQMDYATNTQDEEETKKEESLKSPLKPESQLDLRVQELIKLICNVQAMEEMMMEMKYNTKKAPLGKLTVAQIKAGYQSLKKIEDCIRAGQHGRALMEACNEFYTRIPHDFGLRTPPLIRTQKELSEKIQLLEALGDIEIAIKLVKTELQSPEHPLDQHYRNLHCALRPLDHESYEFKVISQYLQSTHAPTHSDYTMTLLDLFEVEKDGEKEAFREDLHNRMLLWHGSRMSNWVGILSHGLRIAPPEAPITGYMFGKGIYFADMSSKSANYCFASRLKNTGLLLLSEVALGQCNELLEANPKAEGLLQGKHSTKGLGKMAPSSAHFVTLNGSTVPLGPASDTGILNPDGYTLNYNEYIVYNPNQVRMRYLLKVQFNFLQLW
# From the text: PARP-2 is the closest homolog of PARP-1, which also resides in the nucleus and functions similarly to PARP-1.
# [5] = target: T1, PARP-1 (Homo sapiens, UniProt P09874); experiment: PARP-1 enzyme inhibition assay (BPS Bioscience PARP Colorimetric Assay Kit); assay type: biochemical; conditions: for inhibition at 0.05 µM: compound concentration 50 nM, three independent tests
# T1 construct: purchased BPS Bioscience 80580
# T1 sequence (P09874 whole entry): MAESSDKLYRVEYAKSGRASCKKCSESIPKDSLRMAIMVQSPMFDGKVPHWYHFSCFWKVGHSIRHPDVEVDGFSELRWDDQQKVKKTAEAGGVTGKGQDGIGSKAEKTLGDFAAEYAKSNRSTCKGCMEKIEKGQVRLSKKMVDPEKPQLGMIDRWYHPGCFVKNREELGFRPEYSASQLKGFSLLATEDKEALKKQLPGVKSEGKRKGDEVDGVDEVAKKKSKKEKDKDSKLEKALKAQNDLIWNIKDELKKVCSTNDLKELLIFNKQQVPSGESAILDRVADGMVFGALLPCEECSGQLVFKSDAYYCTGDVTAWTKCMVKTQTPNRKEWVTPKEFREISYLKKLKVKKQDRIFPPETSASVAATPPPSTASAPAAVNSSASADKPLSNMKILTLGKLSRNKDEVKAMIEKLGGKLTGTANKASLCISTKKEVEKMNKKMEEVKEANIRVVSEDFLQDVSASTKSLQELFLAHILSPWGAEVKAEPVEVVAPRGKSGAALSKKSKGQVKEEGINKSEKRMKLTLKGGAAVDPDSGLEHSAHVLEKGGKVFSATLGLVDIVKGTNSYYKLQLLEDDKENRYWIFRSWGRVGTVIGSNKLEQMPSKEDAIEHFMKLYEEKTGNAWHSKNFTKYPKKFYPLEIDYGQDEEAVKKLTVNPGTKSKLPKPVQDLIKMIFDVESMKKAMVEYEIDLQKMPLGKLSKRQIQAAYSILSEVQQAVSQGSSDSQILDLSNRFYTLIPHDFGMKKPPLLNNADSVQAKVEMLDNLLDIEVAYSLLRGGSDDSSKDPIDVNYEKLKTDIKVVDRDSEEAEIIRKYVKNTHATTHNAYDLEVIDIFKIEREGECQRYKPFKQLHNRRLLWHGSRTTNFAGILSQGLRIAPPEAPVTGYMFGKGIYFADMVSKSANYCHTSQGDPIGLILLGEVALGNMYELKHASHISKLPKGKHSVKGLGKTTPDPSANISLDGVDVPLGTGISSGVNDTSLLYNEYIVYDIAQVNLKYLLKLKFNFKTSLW
# Description: All target compounds were evaluated for PARP-1 enzyme inhibition activity at the concentration of 50 nM determined by previous pre-experiments.
# The ability of the compounds to inhibit PARP-1 enzyme activity was assessed using BPS Bioscience's PARP Colorimetric Assay Kit (BPS Bioscience, Catalog # 80580). PARP-1 is known to catalyse the NAD-dependent addition of poly(ADP-ribose) to histones. The PARP-1 assay kit comes in a convenient 96-well format, with purified PARP-1 enzyme, histone mixture, activated DNA, and PARP-1 assay buffer. The key to the PARP-1 Colorimetric Activity Assay is the biotinylated substrate. With this kit, only three simple steps are required for PARP-1 reactions. First, histone proteins are coated on a 96-well plate. Next, the PARP-1 biotinylated substrate is incubated with an assay buffer that contains the PARP-1 enzyme. Finally, the plate is treated with streptavidin-HRP followed by the addition of the colorimetric HRP substrate to produce colour that can then be measured using a UV/Vis spectrophotometer microplate reader. IC50 values were calculated using GraphPad Prism5 software.
# [6] = test system: A549 cells; experiment: MTT antiproliferation assay, A549 cells; assay type: cell-based; conditions: Homo sapiens, lung cancer cell line, 48 h
# Description: as §1, §2
# [7] = Brain/plasma pharmacokinetic study in vivo; conditions: ICR mice; for concentration at 5 min / concentration at 60 min / Kp at 5 min / Kp at 60 min: mouse, intravenous; for concentration at 5 min / Kp at 5 min: 5 min after tail vein injection of 1.5 mg/kg; for Kp at 5 min / Kp at 60 min: brain/plasma, read-out: B/P ratio
# Description: Further, the brain permeability of representative compounds was evaluated in ICR mice. After tail vein injection of a 1.5 mg/kg dose, the concentrations of the compounds in the brain and plasma were measured after 5 min and 60 min of administration, and the brain/plasma (B/P) ratio was calculated. […] On the contrary, compounds H42 and H52 performed high B/P ratios, which were consistent with our initial expectations. Among them, the B/P ratio of H42 reached balance rapidly in vivo and maintained above 3, while the proportion of H52 in the brain increased gradually and reached 4.41 at 60 min.
# All animal experiments were complied with the ARRIVE guidelines and were carried out in accordance with the U.K. Animals Act, 1986 and associated guidelines. The ICR mice were used in plasma–brain distribution assay of compounds. After tail vein injection of a 1.5 mg/kg dose, the concentrations of the compounds in the brain and plasma were measured after 5 min and 60 min of administration, and the brain/plasma (B/P) ratio was calculated. The samples of plasma and brain tissue were prepared as previously reported. An established LC-MS/MS method was used for determining the concentration of representative compounds in plasma and brain tissue.
# [8] = in vitro; conditions: dog, MDCK
# [9] = test system: MDCK cells monolayer model; conditions: dog, 3 h, 10 µM
# [10] = test system: glioblastoma (U87) cells; experiment: Antiproliferation in combination with TMZ, U87 cells; assay type: cell-based, human; conditions: combination with Temozolomide
# Description: as §2
# [11] = brain, 60 min after tail vein injection of 1.5 mg/kg, read-out: Brain
# [12] = 60 min after tail vein injection of 1.5 mg/kg
# [13] = plasma, 60 min after tail vein injection of 1.5 mg/kg, read-out: Plasma
compound,measurement,setting,value
O=C(c1cc(Cc2n[nH]c(=O)c3ccccc23)ccc1F)N1CCN(C(=O)C2CC2)CC1 [Olaparib],CNS penetration,[1],not CNS penetrant
Cn1ncnc1[C@H]1c2n[nH]c(=O)c3cc(F)cc(c23)N[C@@H]1c1ccc(F)cc1 [Talazoparib],CNS penetration,[1],not CNS penetrant
"COc1ccc(-c2ccc(C3CNC(=O)c4ccccc4N3)cc2)cc1 (stereo not shown) [Compound H50, 2-(4′-Methoxy-[1,1′-biphenyl]-4-yl)-1,2,3,4-tetrahydro-5H-benzo[e][1,4]diazepin-5-one]",IC50,[2],130 ± 10.7 µM
same,IC50,[3],125 ± 13.2 µM
same,IC50,[4],0.0451 µM
same,IC50,[5],0.0463 µM
same,inhibition at 0.05 µM,[5],> 50%
same,IC50,[6],> 200 µM
"O=C1NCC(c2ccc(-c3ccc(C(F)(F)F)cc3)cc2)Nc2ccccc21 (stereo not shown) [Compound H52, 2-(4′-(Trifluoromethyl)-[1,1′-biphenyl]-4-yl)-1,2,3,4-tetrahydro-5H-benzo[e][1,4]diazepin-5-one]",IC50,[2],24.6 ± 3.7 µM
same,B/P ratio,"[7]; 60 min after tail vein injection of 1.5 mg/kg, 1.5 mg/kg",4.41 ± 0.07 fold
same,concentration at 5 min,"[7]; brain, read-out: Brain",1570 ± 264 ng/g
same,concentration at 60 min,[7]; [11],2630 ± 118 ng/g
same,Kp at 5 min,[7],2.18 ± 0.27
same,Kp at 60 min,[7]; [12],4.41
same,concentration at 5 min,"[7]; plasma, read-out: Plasma",719 ± 39.9 ng/mL
same,concentration at 60 min,[7]; [13],597 ± 25 ng/mL
same,"Papp A→B at 3 h, 10 µM",[8],19.7 ± 0.92 ×10⁻⁶ cm/s
same,IC50,[3],37.9 ± 3.5 µM
same,Capical,[9],1.65 ± 0.05 µg/mL
same,Cbasolateral,[9],0.45 ± 0.07 µg/mL
same,IC50,[4],0.0396 µM
same,IC50,[5],0.0302 µM
same,inhibition at 0.05 µM,[5],> 50%
same,Sensitisation effect in combination with TMZ,[10],significant sensitisation effects
same,IC50,[6],157 ± 15.2 µM
"CNCc1ccc(-c2[nH]c3cc(F)cc4c3c2CCNC4=O)cc1 [Rucaparib, reference compound]",IC50,[2],5.5 ± 2.2 µM
same,concentration at 5 min,"[7]; brain, read-out: Brain",170 ± 48.5 ng/g
same,concentration at 60 min,[7]; [11],13.9 ± 3.78 ng/g
same,Kp at 5 min,[7],0.14 ± 0.04
same,Kp at 60 min,[7]; [12],0.1 ± 0.06
same,concentration at 5 min,"[7]; plasma, read-out: Plasma",1180 ± 122 ng/mL
same,concentration at 60 min,[7]; [13],161 ± 60.5 ng/mL
same,CNS penetration,[1],could not pass through the blood-brain barrier; also recorded: not CNS penetrant
same,IC50,[3],20.2 ± 3.1 µM
same,Capical,[9],3.39 ± 0.82 µg/mL
same,inhibition at 0.05 µM,[5],98.2 ± 2.7%
same,IC50,[6],34.9 ± 5.2 µM
"Nc1ccc(-c2ccc(C3CNC(=O)c4ccccc4N3)cc2)cc1 (stereo not shown) [Compound H48, 2-(4′-Amino-[1,1′-biphenyl]-4-yl)-1,2,3,4-tetrahydro-5H-benzo[e][1,4]diazepin-5-one]",IC50,[2],30.7 ± 4 µM
same,concentration at 5 min,"[7]; brain, read-out: Brain",1050 ± 153 ng/g
same,concentration at 60 min,[7]; [11],10.1 ± 0.87 ng/g
same,Kp at 5 min,[7],0.4 ± 0.05
same,Kp at 60 min,[7]; [12],0.07 ± 0.02
same,concentration at 5 min,"[7]; plasma, read-out: Plasma",2650 ± 264 ng/mL
same,concentration at 60 min,[7]; [13],157 ± 32.3 ng/mL
same,"Papp A→B at 3 h, 10 µM",[8],11.7 ± 0.51 ×10⁻⁶ cm/s
same,IC50,[3],35.7 ± 2.9 µM
same,Capical,[9],2.43 ± 0.42 µg/mL
same,Cbasolateral,[9],0.23 ± 0.06 µg/mL
same,IC50,[4],0.0407 µM
same,IC50,[5],0.0378 µM
same,inhibition at 0.05 µM,[5],> 50%
same,IC50,[6],176 ± 23.1 µM
"Cc1n[nH]c(C)c1-c1ccc(C2=Nc3ccccc3C(=O)NC2)cc1 [Compound H34, 2-(4-(3,5-Dimethyl-1H-pyrazol-4-yl)phenyl)-3,4-dihydro-5H-benzo[e][1,4]diazepin-5-one]",IC50,[2],40.3 ± 3.3 µM
same,concentration at 5 min,"[7]; brain, read-out: Brain",301 ± 52.5 ng/g
same,concentration at 60 min,[7]; [11],9.67 ± 8.75 ng/g
same,Kp at 5 min,[7],0.1 ± 0.01
same,Kp at 60 min,[7]; [12],0.01 ± 0.01
same,concentration at 5 min,"[7]; plasma, read-out: Plasma",3120 ± 220 ng/mL
same,concentration at 60 min,[7]; [13],1050 ± 70.3 ng/mL
same,"Papp A→B at 3 h, 10 µM",[8],15.7 ± 1.32 ×10⁻⁶ cm/s
same,IC50,[3],44.3 ± 5.2 µM
same,Capical,[9],1.65 ± 0.32 µg/mL
same,Cbasolateral,[9],0.31 ± 0.08 µg/mL
same,IC50,[4],0.0512 µM
same,IC50,[5],0.0414 µM
same,inhibition at 0.05 µM,[5],> 50%
same,IC50,[6],121 ± 16.2 µM
"O=C1NCC(c2ccccc2)=Nc2ccccc21 [Compound H4, 2-Phenyl-3,4-dihydro-5H-benzo[e][1,4]diazepin-5-one]",inhibition at 0.05 µM,[5],28.8 ± 3.4%
"Nc1ccc(-c2ccc(C3=Nc4ccccc4C(=O)NC3)cc2)cn1 [Compound H38, 2-(4-(6-Aminopyridin-3-yl)phenyl)-3,4-dihydro-5H-benzo[e][1,4]diazepin-5-one]",inhibition at 0.05 µM,[5],34.7 ± 4.2%
"Cn1nccc1-c1ccc(C2=Nc3ccccc3C(=O)NC2)cc1 [Compound H35, 2-(4-(1-Methyl-1H-pyrazol-5-yl)phenyl)-3,4-dihydro-5H-benzo[e][1,4]diazepin-5-one]",inhibition at 0.05 µM,[5],44.3 ± 6.2%
"Nc1cccc(-c2ccc(C3CNC(=O)c4ccccc4N3)cc2)c1 (stereo not shown) [Compound H47, 2-(3′-Amino-[1,1′-biphenyl]-4-yl)-1,2,3,4-tetrahydro-5H-benzo[e][1,4]diazepin-5-one]",inhibition at 0.05 µM,[5],48.7 ± 5.7%
"CC1NC(=O)c2ccccc2NC1c1ccc(Br)cc1 (stereo not shown) [Compound H31, 2-(4-Bromophenyl)-3-methyl-1,2,3,4-tetrahydro-5H-benzo[e][1,4]diazepin-5-one]",inhibition at 0.05 µM,[5],28.5 ± 3.4%
"COc1ccc(C2=Nc3ccccc3C(=O)NC2)cc1OC [Compound H16, 2-(3,4-Dimethoxyphenyl)-3,4-dihydro-5H-benzo[e][1,4]diazepin-5-one]",inhibition at 0.05 µM,[5],24.4 ± 3.2%
"Nc1cccc(-c2ccc(C3=Nc4ccccc4C(=O)NC3)cc2)c1 [Compound H36, 2-(3'-Amino-[1,1'-biphenyl]-4-yl)-3,4-dihydro-5H-benzo[e][1,4]diazepin-5-one]",inhibition at 0.05 µM,[5],40.8 ± 4.7%
"Nc1ccc(-c2ccc(C3=Nc4ccccc4C(=O)NC3)cc2)cc1 [Compound H37, 2-(4′-Amino-[1,1′-biphenyl]-4-yl)-3,4-dihydro-5H-benzo[e][1,4]diazepin-5-one]",inhibition at 0.05 µM,[5],46.1 ± 3.9%
O=C1NCCNc2ccccc21 [Compound H1],inhibition at 0.05 µM,[5],6.2 ± 5.2%
"C[C@@H]1CN(c2ccc(C3CNC(=O)c4ccccc4N3)cc2)C[C@H](C)O1 (stereo partly drawn) [Compound H55, 2-(4-((2S,6R)-2,6-dimethylmorpholino)phenyl)-1,2,3,4-tetrahydro-5H-benzo[e][1,4]diazepin-5-one]",inhibition at 0.05 µM,[5],39.3 ± 5.2%
"Cc1ccc(C2=Nc3ccccc3C(=O)NC2)cc1 [Compound H5, 2-(p-Tolyl)-3,4-dihydro-5H-benzo[e][1,4]diazepin-5-one]",inhibition at 0.05 µM,[5],37.1 ± 2.7%
"O=C1NCC(c2ccc(F)cc2F)Nc2ccccc21 (stereo not shown) [Compound H24, 2-(2,4-Difluorophenyl)-1,2,3,4-tetrahydro-5H-benzo[e][1,4]diazepin-5-one]",inhibition at 0.05 µM,[5],34.8 ± 2.1%
"CN1CC=C(c2ccc(C3=Nc4ccccc4C(=O)NC3)cc2)CC1 [Compound H45, 2-(4-(1-Methyl-1,2,3,6-tetrahydropyridin-4-yl)phenyl)-3,4-dihydro-5H-benzo[e][1,4]diazepin-5-one]",inhibition at 0.05 µM,[5],42.5 ± 6%
"O=C1NCC(c2ccc(Br)cc2)=Nc2ccccc21 [Compound H19, 2-(4-Bromophenyl)-3,4-dihydro-5H-benzo[e][1,4]diazepin-5-one]",inhibition at 0.05 µM,[5],38.4 ± 1.9%
"O=C1NCC(c2ccc(-c3cccc(C(F)(F)F)c3)cc2)Nc2ccccc21 (stereo not shown) [Compound H51, 2-(3′-(Trifluoromethyl)-[1,1′-biphenyl]-4-yl)-1,2,3,4-tetrahydro-5H-benzo[e][1,4]diazepin-5-one]",inhibition at 0.05 µM,[5],48.8 ± 3.7%
